US6441023B1 (American Home Products Corporation, priority 1997, dated 2002)

Key:
Assay type in all cases: biochemical
MMP 9 = biological target: T1, MMP 9 (Homo sapiens, UniProt P14780); assay: In vitro gelatinase assay (human neutrophil gelatinase B); settings: for IC50: read-out: MMP 9 IC 50
T1 construct: from tissue; host or cells: human neutrophils
Procedure: The assay is based on the cleavage of the thiopeptide substrate ((Ac-Pro-Leu-Gly(2 mercapto-4 methyl-pentanoyl)-Leu-Gly-OEt), Bachem Bioscience) by the enzyme, gelatinase, releasing the substrate product which reacts calorimetrically with DTNB ((5,5′-dithio-bis(2-nitro-benzoic acid)). The enzyme activity is measured by the rate of the color increase.
The thiopeptide substrate is made up fresh as a 20 mM stock in 100% DMSO and the DTNB is dissolved in 100% DMSO as a 100 mM stock and stored in dark at room temperature. Both the substrate and DTNB are diluted together to 1 mM with substrate buffer (50 mM HEPES pH 7.5, 5 mM CaCl2) before use. The stock of human neutrophil gelatinase B is diluted with assay buffer (50 mnM HEPES pH 7.5, 5 mM CaCl2, 0.02% Brij) to a final concentration of 0.15 mnM.
The increase in OD405 is plotted and the slope of the line is calculated which represents the reaction rate.

TACE = biological target: T2, TACE (Homo sapiens, UniProt P78536); assay: Procedure for measuring TACE inhibition; design: TACE % inhibition: dose or concentration left out as unconfirmed; settings: for IC50: read-out: TACE IC 50
T2 construct: purchased Immunex
T2 sequence (P78536 215-824): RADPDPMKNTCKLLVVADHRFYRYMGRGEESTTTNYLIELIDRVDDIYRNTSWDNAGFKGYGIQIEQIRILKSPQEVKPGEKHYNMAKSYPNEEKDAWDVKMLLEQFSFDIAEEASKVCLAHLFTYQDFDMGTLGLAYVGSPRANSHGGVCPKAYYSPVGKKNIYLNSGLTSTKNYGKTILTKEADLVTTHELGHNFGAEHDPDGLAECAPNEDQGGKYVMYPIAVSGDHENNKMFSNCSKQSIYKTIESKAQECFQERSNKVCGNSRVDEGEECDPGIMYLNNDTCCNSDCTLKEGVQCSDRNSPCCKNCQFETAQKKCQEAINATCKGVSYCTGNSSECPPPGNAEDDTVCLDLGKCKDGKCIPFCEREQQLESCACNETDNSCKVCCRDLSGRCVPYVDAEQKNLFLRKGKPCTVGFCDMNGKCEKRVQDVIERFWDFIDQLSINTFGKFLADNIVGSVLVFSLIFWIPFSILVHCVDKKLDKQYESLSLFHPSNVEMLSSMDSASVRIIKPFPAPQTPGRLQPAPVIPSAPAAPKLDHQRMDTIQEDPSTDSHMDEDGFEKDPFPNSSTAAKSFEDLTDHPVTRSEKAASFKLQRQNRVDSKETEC
Procedure: Using 96-well black microtiter plates, each well receives a solution composed of 10 μL TACE (Inmunex, final concentration 1 μg/mL), 70 μL Tris buffer, pH 7.4 containing 10% glycerol (final concentration 10 mM), and 10 μL of test compound solution in DMSO ([…], DMSO concentration <1%) and incubated for 10 minutes at room temperature. The reaction is initiated by addition of a fluorescent peptidyl substrate (final concentration 100 μM to each well and then shaking on a shaker for 5 sec.
The reaction is read (excitation 340 nm, emission 420 nm) for 10 min. and the increase in fluorescence over time is plotted as a linear line. The slope of the line is calculated and represents the reaction rate.
The mean (xtsem) of the control rate is calculated and compared for statistical significance (p<0.05) with drug-treated rates using Dunnett's multiple comparison test.

MMP 1 = biological target: T3, MMP 1 (Homo sapiens, UniProt P03956); assay: In vitro collagenase assay (human recombinant fibroblast collagenase); settings: for IC50: read-out: MMP 1 IC 50
T3 construct: human recombinant fibroblast collagenase (truncated, mw=18,828, WAR, Radnor)
T3 sequence (P03956 100-269 limits assumed): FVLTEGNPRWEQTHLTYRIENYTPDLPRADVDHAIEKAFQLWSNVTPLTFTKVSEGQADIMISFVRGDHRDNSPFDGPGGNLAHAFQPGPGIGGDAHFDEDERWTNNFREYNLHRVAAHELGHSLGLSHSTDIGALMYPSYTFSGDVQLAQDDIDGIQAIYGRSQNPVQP
Procedure: The assay is based on the cleavage of a peptide substrate ((Dnp-Pro-Cha-Gly-Cys(iNe)-His-Ala-Lys(NMa)-NH2), Peptide International, Inc.) by collag,enase releasing the fluorescent NMa group which is quantitated on the fluorometer. Dnp quenches the NiIa fluorescence in the intact substrate. […] Substrate is dissolved in methanol and stored frozen in 1 mM aliquots. Collagenase is stored frozen in buffer in 25 µM aliquots. For the assay, substrate is dissolved in HCBC buffer to a final concentration of 10 μM and collagenase to a final concentration of 5 nM. Compounds are dissolved in methanol, DMSO, or HCBC. The methanol and DMSO are diluted in HCBC to <1.0%. Compounds are added to the 96 well plate containing enzyme and the reaction is started by the addition of substrate.
The slope of the line is calculated and represents the reaction rate.
The mean (x±sem) of the control rate is calculated and compared for statistical significance (p<0.05) with drug-treated rates using Dunnett's multiple comparison test.

MMP 13 = MMP 13 (Homo sapiens, UniProt P45452); assay: MMP 13 inhibition (manual); settings: for IC50: read-out: MMP 13 IC 50

T1 sequence (P14780 94-707): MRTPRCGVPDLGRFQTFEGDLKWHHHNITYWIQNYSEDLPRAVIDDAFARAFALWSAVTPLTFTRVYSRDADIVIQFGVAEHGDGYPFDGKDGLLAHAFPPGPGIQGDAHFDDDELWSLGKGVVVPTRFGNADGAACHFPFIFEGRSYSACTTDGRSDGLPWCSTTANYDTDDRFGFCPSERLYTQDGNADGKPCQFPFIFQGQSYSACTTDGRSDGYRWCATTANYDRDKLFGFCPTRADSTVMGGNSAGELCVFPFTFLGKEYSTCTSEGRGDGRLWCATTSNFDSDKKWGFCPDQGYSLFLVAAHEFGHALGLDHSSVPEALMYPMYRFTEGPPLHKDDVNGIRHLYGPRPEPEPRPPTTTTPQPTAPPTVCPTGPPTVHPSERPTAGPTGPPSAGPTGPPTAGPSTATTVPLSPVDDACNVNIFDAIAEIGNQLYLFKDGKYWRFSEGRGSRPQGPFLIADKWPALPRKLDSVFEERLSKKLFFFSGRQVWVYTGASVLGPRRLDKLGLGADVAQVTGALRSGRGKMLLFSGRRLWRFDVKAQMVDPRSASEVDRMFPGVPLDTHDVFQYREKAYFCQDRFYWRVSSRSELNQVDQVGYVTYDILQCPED

TACE % inhibition at 1 micromolar (TACE) | Molecule | IC50 (MMP 9) | IC50 (TACE) | further results
 | COc1ccc(S(=O)(=O)C(CC=C(C)C)(CC=C(C)C)C(=O)NO)cc1 [Example 79, 2-(4-Methoxy-benzenesulfonyl)-5-methyl-2-(3-methyl-but-2-enyl)-hexenoic acid hydroxyamide] | 0.54 nM | 805 nM | IC50 (MMP 1): 25 nM
 | CCCCOc1ccc(S(=O)(=O)C2(C(=O)NO)CCN(Cc3cccc(OC)c3)CC2)cc1 [Example 260, 4-(4-butoxy-benzenesulfonyl)-1-(3-methoxy-benzyl)-piperidine-4-carboxylic acid hydroxyamide] | 2.9 nM | 272 nM | IC50 (MMP 1): 1490 nM
 | CCCCOc1ccc(S(=O)(=O)C2(C(=O)NO)CCN(Cc3cccc(OCCN4CCOCC4)c3)CC2)cc1 [Example 243, 4(4-Butoxy-benzenesulfonyl)-1-[3-(2-morpholinyl-1-ylthoxy)-benzyl]-piperidine-4-carboxylic acid hydroxyamide] |  | 506 nM | IC50 (MMP 1): 2180 nM
20.30% | COc1ccc(S(=O)(=O)C(Cc2ccccc2)C(=O)NO)cc1 (centres unmarked) [Example 9, N-Hydroxy-2-(4-methoxy-benzenesulfonyl)-3-phenyl-propionarmide] |  |  | 
 | O=C(NO)C1(S(=O)(=O)c2ccc(Oc3ccc(Cl)cc3)cc2)CCN(Cc2ccccc2)CC1 [Example 252, 1-Benzyl-4-[4-(4-chloro-phenoxy)-benzenesulfonyl]-piperidine-4-carboxylic acid hydroxyamide] | 1.1 nM |  | IC50 (MMP 13): 0.9 nM; IC50 (MMP 1): 801 nM
 | 5-Methyl-2-(3-methyl-but-2-enyl)-2-(toluene-4-sulfonyl)-hexenoic acid hydroxyamide [Example 42] | 50.9 nM | 36.5 nM | IC50 (MMP 13): 6.2 nM
 | CCCCCCC(Sc1cccc(C(=O)NO)c1)C(=O)NO (centres unmarked) [Example 184] |  |  | TACE % inhibition (TACE): 24.8%
 | CN1CCC(C(=O)NO)(S(=O)(=O)c2ccc(Oc3ccc(Cl)cc3)cc2)CC1 [Example 249, 4-[4-(4-chloro-phenoxy)-benzenesulfonyl]1-methyl-piperidine-4-carboxylic acid hydroxyamide] | 2 nM | 270 nM | IC50 (MMP 13): 1.6 nM
40.6% | COc1ccc(S(=O)(=O)C(C)(Cc2ccc(OCCCN3CCN(c4cccc(Cl)c4)CC3)cc2)C(=O)NO)cc1 (centres unmarked) [Example 23, 3-(4-{3-[4-(3-Chloro-phenyl)-piperain-1-yl]-propoxy}-phenyl)-N-hydroxy-2-(4-methoxy-benzenesulfonyl)-2-methyl-propionamide] |  |  | 
25.2% | COc1ccc(S(=O)(=O)C(C)(Cc2cccc(OCCN3CCOCC3)c2)C(=O)NO)cc1 (centres unmarked) [Example 30, N-Hydroxy-2-(4-methoxy-benzenesulfonyl)-2-methyl-3-[3-(2-morpholin-1-yl-ethoxy)-phenyl]-propionamide] |  |  | 
 | CCCCCCC(C(=O)NO)[S+]([O-])c1cccc(C(=O)NO)c1 (centres unmarked) [Example 188, 3-(1-Hydroxycarbamoyl-heptylsulfmyl)-benzoicacid hydroxyamide] |  |  | TACE % inhibition at 1 µM (TACE): 16.2%
31% | COc1ccc(S(=O)(=O)C(C)(Cc2ccc(OCCN(C(C)C)C(C)C)cc2)C(=O)NO)cc1 (centres unmarked) [Example 20, N-Hydroxy-2-(4-methoxy-benzenesulfonyl)-2-methy-3-[4-(2-N,N-diisopropylamino-ethoxy)-phenyl]-propionamide] |  |  | 
20.17% | C#CCC(CC#C)(C(=O)NO)S(=O)(=O)c1ccc(OC)cc1 [Example 73, 2-(4-Methoxy-benzenesulfonyl)-2-prop-2-ynyl-pentynoic acid hydroxyamde] |  |  | 
 | CC(C)CCOc1ccc(S(=O)(=O)C2(C(=O)NO)CCN(Cc3ccccc3)CC2)cc1 [Example 255, 1-Benzyl-4-[4-(3-methyl-butoxy)-benzenesulfonyl]-piperidine-4-carboxylic acid hydroxyamide] |  | 565 nM | IC50 (MMP 13): 1.5 nM
 | CCCCOc1ccc(S(=O)(=O)C2(C(=O)NO)CCN(Cc3ccc(OCCN4CCCCC4)cc3)CC2)cc1 [Example 242, 4-(4-Butoxy-benzenesulfonyl)-1-[4-(2-piperidin-1-yl-ethoxy)-benzyl]-piperidine-4-carboxylic acid hydroxyamide] | 2 nM | 581 nM | IC50 (MMP 1): 1950 nM
51.64% | CC#CCC(CC#CC)(C(=O)NO)S(=O)(=O)c1ccc(OC)cc1 [Example 72, 2-(4-Methoxy-benzenesulfonyl)-2-but-2-ynyl-hextynoic acid hydroxyamide] |  |  | 
42.21% | CCCCCC#CCC(CC#CCCCCC)(C(=O)NO)S(=O)(=O)c1ccc(OC)cc1 [Example 71, 2-(4-methoxy-benzenesulfonyl)-2-oct-2-ynyl-decffynoic acid hydroxyamide] |  |  | 
50.2% | COc1ccc(S(=O)(=O)C2(C(=O)NO)CCN(CCCOc3ccccc3)CC2)cc1 [Example 105, 4-(4-Methoxy-benzenesulfony)-1-(3-phenoxy-propyl)-pipendine-4-carboxyllc acid hydroxyamide] |  |  | 
 | Cc1ccc(CN2CCC(C(=O)NO)(S(=O)(=O)c3ccc(OCc4ccc(Cl)cc4)cc3)CC2)cc1 [Example 266, [4-(4-Chloro-benzyloxy)-benzenesulfonyl]-1-(4-methylbenzyl)-piperidine-4-carboxylic acid hydroxamide] | 6 nM | 421 nM | IC50 (MMP 13): 5.7 nM
 | COc1ccc(S(=O)(=O)C2(C(=O)NO)CCN(Cc3ccc(-c4cccs4)cc3)CC2)cc1 [Example 261, 4-(4-Methoxy-benzenesulfonyl)-1-(thiophen-2-yl-benzyl)-piperidine-4-carboxylic acid hydroxyamide] | 10.9 nM |  | IC50 (MMP 1): 513 nM
 | 1-(Bromo-benzyl)-4-(4-methoxy-benzenesulfonyl)-piperidine-4-carboxylic acid hydroxyamide [Example 90] | 10.3 nM | 71.9 nM | 
 | COc1ccc(S(=O)(=O)C(CCCCOc2ccccc2)(Cc2cccnc2)C(=O)NO)cc1 (centres unmarked) [Example 68, 2-(4-Methoxy-benzenesulfonyl)-6-phenoxy-2-pyridin-3-yhnethyl-hexanoic acid hydroxyamide] | 29 nM | 522 nM | IC50 (MMP 13): 27 nM
 | (1-Hydroxycarbamoyl-propane-1 -sulfanyl)-propionic acid hydroxyamide [Example 122] |  |  | TACE % inhibition at 1 µM (TACE): 3.1%
 | 2-[8-(1-carboxy-ethanesulfonyl)-octane-1-sulfonyl]-propionic acid hydroxyamide [Example 49] |  |  | MMP 9 % inhibition at 1 micromolar (MMP 9; 1 micromolar): 23.7%; MMP 13 % inhibition at 1 micromolar (MMP 13; 1 micromolar): 54.6%; MMP 1 % inhibition at 1 micromolar (MMP 1; 1 micromolar): 10.1%
25% | COc1ccc([S+]([O-])C(C)(Cc2ccccc2)C(=O)NO)cc1 (centres unmarked) [Example 5, N-Hydroxy-2-(4-methoxy-benzenesulfmyl)-2-methyl-3-phenyl-propionamide] |  |  | 
 | COc1ccc(S(=O)(=O)C2(C(=O)NO)CCN(Cc3ccc(-c4ccccn4)cc3)CC2)cc1 [Example 262, 4-(4-methoxy-benzenesulfonyl)-1-(4-pyridin-2-yl-benzyl)-piperidine-4-carboxylic acid hydroxyamide] | 6.1 nM | 298 nM | IC50 (MMP 1): 422 nM

Molecule | TACE % inhibition at 1 micromolar (TACE) | IC50 (MMP 9) | IC50 (TACE) | further results
2-(4-Fluoro-benzenesulfonyl)-2-but-2-ynyl-hexynoic acid hydroxyamide [Example 78] | 24.58% | 560 nM |  | IC50 (MMP 13): 34 nM
COc1ccc(SC(C)(Cc2ccccc2)C(=O)NO)cc1 (centres unmarked) [Example 1, N-Hydroxy-2-(4-methoxy-phenylsulfanyl)-2-methyl-3-phenyl-propionamnide] | 31.62% | 560 nM |  | IC50 (MMP 13): 193 nM
